Here are results for two sequences from patent publication US20220324958A1, “ANTI-INFLAMMATORY PEPTIDES, PHARMACEUTICAL COMPOSITION CONTAINING SUCH PEPTIDES, AND USES THEREOF” (INSTITUTO BUTANTAN, priority 2019, published 2022).

No end group written: not given here.

Series [1] has as its system neurons obtained from SHSY5Y cells. Nature of the series: Anti-nociceptive/anti-inflammatory model, neurons stimulated with glycated collagen (GC): substance P and β-endorphin in supernatant. The conditions noted are these: peptide 200 nM incubated 3 hours after GC (100 μg/mL). Format: cell-based. The method, then:
ANOVA and Dunnet * p<0.05; ** p<0.01 compared to glycated collagen (GC);
ANOVA and Dunnet * p<0.05 ** p<0.01, *** p<0.001 compared with GC;
(§1) The differentiation process consists of 6 stages distributed over 7 days. On the first day of the differentiation protocol (day 0), cells were seeded in collagen-coated plates. On days 1, 3, and 4 the culture medium was removed, and the differentiation medium containing 2% fetal bovine serum (FBS) and retinoic acid (RA) 10 μM) was added. On day 5, the medium was removed and the culture was incubated with culture medium and brain-derived neurotrophic factor (BDNF) (50 ng/mL). On day 7 of the differentiation process, differentiated neurons are fully ready for use (Agholme et al., 2010, with some modifications).
(§2) 7×10^3 neurons/well were incubated with 10 μM of morphine (inhibitory response control) or peptides (200 nM and 500 nM) 3 hours before or 3 hours after incubation with IL-1β (10 ng/mL) or glycated collagen (GC) (100 μg/mL) (both positive controls for the release of substance P). After 24 hours of incubation, the cell viability assay and the detection of substance P and β-endorphin in the supernatant were performed. Multiplex with magnetic spheres (MILLIPLEX® MAP Magnetic Bead Panel)
ANOVA and Dunnet * p<0.05; ** p<0.01 compared to GC.
ANOVA and Dunnet * p<0.05 ** p<0.01, *** p<0.001 compared to GC.

The subject of series [2] is THP-1 cells differentiated into macrophages. The series can be described thus: LPS-induced cytokine production in THP-1-derived macrophages (Multiplex). Format: cell-based, human. How it is done:
THP-1 cells differentiated into macrophages were induced with LPS (10 ng/mL) and, one hour later, treated with synthetic peptides at a concentration of 200 nM. Dexamethasone (10 μM), an inflammatory inhibitor, was used as a control. After 24 hours, the culture medium was collected to measure the IL-1β (A), IL-6 (B), TNF-α (C), and IL-10 cytokines using a Multiplex kit. * p<0.05 vs. LPS; ** p<0.01 vs. LPS; *** p<0.005 vs. LPS;
THP-1 cells differentiated into macrophages were induced with LPS (10 ng/mL) and, one hour later, treated with L4 or D3 peptide (0.05 μM, 0.2 μM, 1 μM, and 2 μM). After 24 hours, the culture medium was collected and TNF-alpha, IL-6, IL-23, and IL-8 were measured by Multiplex. (A) L4 peptide. (B) D3 peptide;
(§3) Macrophages were obtained from the differentiation of monocytes THP-1. Briefly, 1×10^7 cells were treated in the RPMI medium with 25 nM PMA for 48 hours followed by 24 hours of rest in medium without PMA. Subsequently, the cells were released and plated for the respective treatments.
The kit is based on Luminex® xMAP® technology that allows the simultaneous analysis of various cytokines. The technique is based on marked magnetic fluorescent spheres, known as MagPlex®-C microspheres. These microspheres are covered with capture antibodies specific for IL-6 […], and specifically capture the analyte in the supernatant. Each microsphere was individually identified and the results were analyzed using Luminex® Xponent® 4.2 acquisition software.
THP-1 cells differentiated into macrophages were induced with LPS (10 ng/mL) and, one hour later, treated with synthetic peptides, […] (inflammation inhibitor, 10 μM). After 24 hours, the culture medium was collected and IL-1β (A), IL-6 (B), TNF-α (C), and IL-10 were measured by Multiplex. * p<0.05 vs. LPS; ** p<0.01 vs. LPS; *** p<0.005 vs. LPS.
THP-1 cells differentiated into macrophages were induced with LPS (10 ng/mL) and, one hour after, treated with L4 (0.05 μM, 0.2 μM, 1 μM, and 2 μM). After 24 hours, the culture medium was collected and TNF-α, IL-6, IL-23, and IL-8 were measured by Multiplex. (A) L4 peptide. (B) D3 peptide.

In series [3] the test system is human chondrocytes (NHAC-kn). The series can be described thus: Pro-inflammatory model of chondrocytes treated with IL-1β, cytokine release (Multiplex). The conditions noted are these: chondrocytes treated with IL-1β (1 ng/mL). Format: cell-based. The method, then: Values were obtained from each analyte in pg/mL from treatment with the peptides in the presence of IL-1β (1 ng/mL). The data are presented as the mean±MSE (* p<0.05 when compared to the control with IL-1β, test t, n=3).
(B) Chondrocytes were pretreated for 1 hour with IL-1β (1 ng/mL) before the addition of peptides (200 nM, 500 nM, and 1.25 μM) and an additional incubation of 24 hours before collecting the supernatants.
The primary human chondrocytes used in this assay were purchased from Lonza: Normal Human Articular Primary chondrocytes (NHAC-Kn, #CC-2550, Lot 8F3336). Chondrocyte cell culture was performed in bottles (Sarstedt T175 and T75). The cells were cultivated in DMEM culture medium (Sigma) supplemented with 10% fetal bovine serum (FBS) (Sigma), incubated in an oven at 37° C. and 5% CO2, and cultures were used in the sixth passage. The culture medium was changed every two days until the culture reached 80% confluence.
The identification and quantitative analysis of the cytokines present in the peptide treatment supernatant were performed using the Luminex xMAP Milliplex MAP Human Cytokine/Chemokine Magnetic Bead Panel Catalog #HCYTOMAG-60K technology, according to the manufacturer's instructions.
Values were obtained from each analyte in pg/mL from treatment with the peptides in the presence of IL-1β (1 ng/mL). The data are presented as the mean±MSE (*p<0.05 when compared to the control with IL-1β, test t, n=3).

The test system of series [4] is neurons obtained from SHSY5Y cells. The series can be described thus: Anti-nociceptive/anti-inflammatory model, neurons stimulated with IL-1β: substance P and β-endorphin in supernatant. Format: cell-based. The method, then: ANOVA and Dunnet ** p<0.01, *** p<0.001 compared to IL-1β;
as §1, §2
ANOVA and Dunnet ** p<0.01, *** p<0.001 compared to […]

For series [5], the system named is macrophages derived from THP-1. Nature of the series: Cell viability (MTT) of macrophages derived from THP-1. Format: cell-based, human. How it is done: as §3
The evaluation of metabolically active cells was performed using the colorimetric assay of [3-(4,5-dimethylthiazol-2-yl)-2,5-diphenyl tetrazolium] bromide (MTT, Sigma-Aldrich, St. Louis, USA), as previously reported (Twentyman et al., 1987). After each incubation period, the supernatant was removed and a MTT solution (0.5 mg/mL in phosphate-buffered saline—PBS) was added, and the cells incubated at 37° C. and 5% CO2 for 3 hours (Yang et al., 2012). After this period, the solution was removed and crystals of dark blue formazan were solubilized with 1 mL of dimethyl sulfoxide (DMSO, Merck, Darmstad) for 5 minutes. Quantification of formazan was done using an automatic ELISA microplate reader (SLT, Austria) at 570 nm.

Where [6] appears, read: LPS 10 ng/mL, peptide 200 nM one hour later, 24 hours, vs group treated only with LPS.
Where [7] appears, read: dose-response 0.05, 0.2, 1 and 2 μM, LPS 10 ng/mL, 24 hours.
Setting [8] is: peptide 200 nM added 3 hours after IL-1β (10 ng/mL).

On to “DYWHDGHDLN (Designated peptide based on the motif of a group of proteins called hemoline from lepidoptera acting as an anti-inflammatory molecule.) [D3]”, for which, in series [1], the “production of Substance P” value is “significantly inhibited” and the “production of β-endorphin” value is “increased”. Besides, in series [2] (LPS 10 ng/mL, peptide 200 nM one hour later, 24 hours), the “levels of IL-10 (anti-inflammatory cytokine)” value is given as “reduced”. In series [2] (setting [6]), the “levels of IL-1β” value was “significantly reducing”, the “levels of IL-6” value is given as “significantly reducing” and the “levels of TNF-a” value is “significantly reducing”. Moreover, in series [2] (setting [7]), the “best dose regarding IL-6 release” value is 1 µM, the “best dose regarding IL-8 release” value came to 1 µM, the “most effective dose concerning IL-23 release” value worked out at 1 µM and the “most effective dose concerning TNF-α release” value stood at 1 µM. Further, in series [2] (dose-response 0.05-2 μM, TNF-α, IL-6, IL-23, IL-8), the “production of inflammatory cytokines in response to LPS (dose-dependent)” value is reported as “reduced”. For the same sequence, in series [3], the “anti-inflammatory activity (release of G-CSF, GM-CSF, IL-6, IL-8, MCP-1, TNF-α)” value was “anti-inflammatory activity”. In series [4] (setting [8]), the “production of Substance P” value is “inhibit” and the “production of β-endorphin” value is on record as “induced”. Further, in series [4] (peptide 200 nM added 3 hours before IL-1β (10 ng/mL)), the “production of substance P induced by IL-1β” value is on record as “significantly inhibited”.
As for YAIGYSCKDYK [P4, YAIGYSCKDYK], in series [5], the “viability of macrophages derived from THP-1” value is on record as “no effect”.
